From patent publication US8030327B2 (MDS K.K., priority 2004, dated 2011)

Legend:
[1] = target: T1, PLK1-T210D (human active type PLK1) (Homo sapiens, UniProt P53350, T210D); test: Measurement of PLK1-T210D activity (33P-ATP, phosphocellulose filter); type: biochemical; settings: 50 μM substrate peptide, 50 μM ATP, 25° C., 20 minutes, read-out: PLK1-T210D inhibitory activity
T1 construct: a baculovirus expressing full-length human PLK1; GST (glutathione S-transferase) (N); made in house; host or cells: insect cells (baculovirus)
T1 sequence (P53350 whole entry T210D): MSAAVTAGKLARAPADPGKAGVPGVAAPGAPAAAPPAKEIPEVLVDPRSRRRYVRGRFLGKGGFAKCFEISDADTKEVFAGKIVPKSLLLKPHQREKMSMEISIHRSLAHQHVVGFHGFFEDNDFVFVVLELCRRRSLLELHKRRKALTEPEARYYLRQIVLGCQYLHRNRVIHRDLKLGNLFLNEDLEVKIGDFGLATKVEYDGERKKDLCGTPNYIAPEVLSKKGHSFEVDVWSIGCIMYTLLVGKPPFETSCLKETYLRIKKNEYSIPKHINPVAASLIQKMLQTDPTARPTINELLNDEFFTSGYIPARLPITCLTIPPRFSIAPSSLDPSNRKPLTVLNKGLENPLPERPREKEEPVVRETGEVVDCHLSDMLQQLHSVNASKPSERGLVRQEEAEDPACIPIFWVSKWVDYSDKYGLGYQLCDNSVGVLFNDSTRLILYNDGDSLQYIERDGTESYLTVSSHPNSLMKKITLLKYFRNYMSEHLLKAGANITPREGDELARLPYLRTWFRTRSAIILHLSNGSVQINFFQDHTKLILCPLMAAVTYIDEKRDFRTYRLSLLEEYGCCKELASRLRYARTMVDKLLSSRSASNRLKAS
Method: For the measurement of the PLK1 and PLK1-T210D activity, a synthetic peptide (aspartic acid-glutamic acid leucine-methionine-glutamic acid-alanine-serine-phenylalanine-alanine-aspartic acid-glutamine-aspartic acid-alanine-lysine) in which the serine surrounding sequence of the amino acid sequence No. 198 of CDC25C having been reported as the site for PLK1 substrate [EMBO Report, Vol. 3, 341 (2002)] is altered, was used as a substrate.
The volume of the reaction solution was 21.1 μL and the composition of the reaction buffer was 20 mM tris-hydrochloric acid buffer (pH 7.4)/10 mM magnesium chloride/0.5 mM dithiothreitol/1 mM EGTA (ethylene glycol-bis(beta-aminoethylether)-N,N,N′,N′,-tetraacetic acid). Thereto, purified PLK 1, 50 μM of the substrate peptide, 50 μM of non-labeled adenosine triphosphate (ATP), and 1 μCi of [γ-^33P]-labeled ATP (2000 to 4000 Ci/mmole) were added to carry out the reaction at 25° C. for 20 minutes. Then, 10 μL of 350 mM phosphate buffer was added to the reaction system to terminate the reaction. The resultant solution was spotted onto a multi-screen phosphocellulose filter on a 96-well plate. After washing the phosphocellulose filter with 75 mM phosphate buffer, the filter was dried to measure the radioactivity with a liquid scintillation counter. […]

HeLaS3 cells = test: PLK1 inhibitory activity at cellular level: M phase arrest by phospho-histone H3 (Ser10) immunofluorescence; type: cell-based, human; settings: HeLaS3 cells synchronized at G1/S; 12 hours after addition; concentration inducing 50% of maximum ratio of cells arrested at M phase
Method: For the measurement of the PLK 1 inhibitory activity of the compound at the cellular level, human uterine cervix cell lines HeLaS3 cells were used. The HeLaS3 cell was obtained from American Type Culture Collection (ATTC), and cultured in a CO2-incubator of saturated steam, in the presence of 5% CO2, by using Dulbecco's Modified Eagle's Medium containing 10% fetal calf serum at 37° C.
It has been reported that PLK 1 plays an important role in various stages of mitotic phase (M-phase) in mammalian cells (Nature Review Molecular Cell Biology (Nat. Rev. Mol. Cell. Biol.), Vol. 5, 429, (2004)). In fact, when the mammalian cells are treated with PLK 1 siRNA to control the expression level, the cell cycle progression is inhibited and thus the cell is arrested at M phase. In addition, when examining the phosphorylation level of serine (10th residue on histone H3) which is thought to be required for a chromosome condensation in M phase, is examined, it is observed that the level is enhanced to a high level. Thus, after treating the cell with the compound according to the invention, the phosphorylation level of histone H3 was examined by the indirect fluorescent antibody technique, the cells arrested at M phase were identified by using the level thereof as an indicator to analyze the ratio of cells arrested at M phase, and then EC50 value of each compound was calculated to evaluate the PLK 1 inhibitory activity at a cellular level.
First, HeLaS3 cells synchronized at the G1/S phase by the double-thymidine method were seeded into a lysine-treated 96-well plate (Falcon Corp.) in the ratio of 8,000 per one well, and allowed to stand still in the above-mentioned CO2 incubator. 4 hours after the seeding, the compound according to the invention, which is diluted in series, was added into each well of the plate, and further allowed to stand still in the CO2 incubator. 12 hours after the addition of the compound according to the invention, the culture medium containing the compound according to the invention in each well of the plate was removed, and then 100 μL of ice-cold 100% methanol (Wako Pure Chemical Industries, Ltd.) was added, to carry out cell fixation for 10 minutes and treatment for increasing the membrane permeability. Subsequently, to the wells in which the methanol was removed, 50 μL of 1% BSA/PBS was added, and then blocking was carried out for 30 minutes. Thereafter, for the primary antibody reaction, 50 μL of 1% BSA/PBS containing a 2.5 mg/mL Anti-phospho Histone H3 (Ser10) antibody (Upstate Corp.) was added, and the plate was left over at room temperature for 90 minutes. After terminating the reaction, each well was once washed with PBS, and for the second antibody reaction, 50 μL of 1% BSA/PBS containing 1.5 mg/mL Cy5-labelled anti-rabbit IgG (H+ L) antibody (Chemicon) and 10 ug/mL DAPI (Sigma) which is a nucleus staining regent, was added to the wells, and further left over at room temperature for 90 minutes. After terminating the reaction, the reaction solution in wells was removed and replaced with 100 μL of PBS, and then fluorescence images were captured by using IN Cell Analyzer 1000 (manufactured by GE Amersham) to analyze the ratio of the cells arrested at M phase (Mitotic index) in each view.

full-length human PLK1 = target: T2, full-length human PLK1 (Homo sapiens, UniProt P53350); test: Measurement of PLK1 activity (33P-ATP, phosphocellulose filter); type: biochemical; settings: 50 μM substrate peptide, 50 μM ATP, 25° C., 20 minutes, read-out: PLK1 inhibitory activity
T2 construct: a baculovirus expressing full-length human PLK1; GST (glutathione S-transferase) (N, cleaved yes); made in house; host or cells: Spodoptera frugiperda Sf9 insect cells (baculovirus)
T2 sequence (P53350 whole entry): as the sequence (P53350 whole entry T210D) above, with D210T counted along it
Method: First, a baculovirus expressing full-length human PLK1 of which the N terminus is fused with GST (glutathione S-transferase) was prepared, and then the PLK1 transfected into a Spodoptera frugiperda(Sf)9 insect cell was highly expressed as a GST-fused protein. The cells were recovered and suspended in a lysis buffer (50 mM tris-hydrochloric acid buffer (pH 7.4)/150 mM sodium chloride/1 mM EDTA (ethylenediamine tetraacetic acid)/1 mM dithiothreitol/0.1% polyoxyethylene sorbitan monolaurate) to break open cells with a sonicator, and supernatant was recovered after a centrifugation. The supernatant was reacted on glutathione sepharose beads, and then the beads were washed with a lysis buffer. Thereafter, the beads were reacted in a lysis buffer containing Precision Protease to recover supernatant. […]
The reaction was carried out in accordance with the method of Toyoshima-Morimoto et al. [Nature, Vol. 410, 215-220, (2001)]. […] After washing the phosphocellulose filter with 75 mM phosphate buffer, the filter was dried to measure the radioactivity with a liquid scintillation counter. […]

Row | SMILES | IC50 [1] [nM] | EC50 (HeLaS3 cells) [nM] | IC50 (full-length human PLK1) [nM]
1 | CC(Oc1cc(-c2cnc3ccccn23)sc1C(N)=O)c1ccccc1[N+](=O)[O-] (centres unmarked) [Example 44, 5-imidazo[1,2-a]pyridin-3-yl-3-[1-(2-nitrophenyl)ethoxy]thiophene-2-carboxyamide] | 12 | 70 | 12
2 | C[C@@H](Oc1cc(-c2cnc3ccc(OCCO)cn23)sc1C(N)=O)c1ccccc1Cl [Example 66, 3-[(1R)-1-(2-chlorophenyl)ethoxy]-5-[6-(2-hydroxyethoxy)imidazo[1,2-a]pyridin-3-yl]thiophene-2-carboxyamide] | – | 360 | –
3 | CC(Oc1nc(-c2cnc3ccccn23)sc1C(N)=O)c1ccccc1Cl (centres unmarked) [Example 161] | – | 490 | –
4 | CC(Oc1cc(-c2cnc3cnccn23)sc1C(N)=O)c1ccccc1Cl (centres unmarked) [Example 163] | – | 660 | –
5 | C[C@@H](Oc1nc(-c2cnc3cnc(CS(C)(=O)=O)cn23)sc1C(N)=O)c1ccc(CN(C)C)cc1Cl [Example 236] | – | 100 | –

Second part, the molecule after the results:

Row | IC50 [1] [nM] | EC50 (HeLaS3 cells) [nM] | IC50 (full-length human PLK1) [nM] | SMILES
6 | 22 | 210 | 28 | C[C@@H](Oc1cc(-c2cnc3ccc(CN4CCNCC4)cn23)sc1C(N)=O)c1ccccc1Cl [Example 119, 3-[(1R)-1-(2-chlorophenyl)ethoxy]-5-[6-(piperazin-1-ylmethyl)imidazo[1,2-a]pyridin-3-yl]thiophene-2-carboxyamide]
7 | – | 390 | – | C[C@@H](Oc1cc(-c2cnc3ccc(C#N)cn23)sc1C(N)=O)c1ccc(CNC(C)(C)CO)cc1OC(F)F [Example 188, 5-(6-cyanoimidazo[1,2-a]pyridin-3-yl)-3-[(1R)-1-(2-(difluoromethoxy)-4-{[(2-hydroxy-1,1-dimethylethyl)amino]methyl}phenyl)ethoxy]thiophene-2-carboxyamide]
